Source: US20240342179A1, “TREATMENT OF CANCERS OR NEOPLASMS BY INHIBITING KIF15” (University of Kansas, priority 2023, published 2024)

Assays:
[1] = TruHits counter-screen
[2] = target: KIF15/TPX2 protein-protein interaction (GST-KIF15 amino acids 1149-1388, His-TPX2 amino acids 346-747) (Homo sapiens (Human), UniProt Q9NS87); test: KIF15/TPX2 AlphaScreen assay; format: binding
Method: The protocol designed peptides corresponding to the appropriate domains of KIF15 (amino acids 1149-1388, GST-tagged) and TPX2 (amino acids 346-747, His-tagged), for use in the AlphaScreen assay.
Next, the protocol screened a total of 191,852 compounds from the KU-HTS library. Analysis identified 584 hits that inhibited the primary AlphaScreen TPX2-KIF15 interaction to greater than three standard deviations plus the plate inhibition-median. The 584 hits were tested for assay interference in the AlphaScreen counter-screen using His-GST fusion protein. […] Of the 467 hits, 399 inhibited the TPX2-KIF15 interaction in a dose-response manner. Refinement was conducted until identifying the compounds provided herein.
To identify compounds that inhibit KIF15-mediated bipolar spindle formation, a process that is dependent on KIF15 binding to TPX2, the protocol designed a high-throughput screen using AlphaScreen Technology. Previous studies predicted that KIF15-TPX2 binding is mediated through a C-terminal coiled-coil domain on KIF15 (amino acids 1149-1388; amino acids 1359-1380) that binds the C-terminal region of TPX2 (amino acids 475-715; amino acids 680-747)^50, 52, 57, 58. Based on these observations, the protocol designed peptides corresponding to the appropriate domains of TPX2 (amino acids 346-747, His-tagged), and KIF15 (amino acids 1149-1388, GST-tagged) for use in the AlphaScreen assay.
Next, the protocol screened a total of 191,852 compounds from the KU-HTS small-molecule compound collection. The protocol identified 584 hits that inhibited the primary AlphaScreen TPX2-KIF15 interaction to greater than three standard deviations plus the plate inhibition-median. The 584 hits were tested for assay interference in the AlphaScreen assay counter-screen using His-GST fusion protein eliminating 117 compounds^99. […] Of the 467 hits, 399 inhibited the KIF15-TPX2 interaction in a concentration-dependent manner (FIGS. 3A-3D), rendering them candidates for follow-on validation in orthogonal and counter-screen assays. Informed by computational and medicinal chemistry assessment^100, the protocol selected a representative subset of approximately 200 of the 399 compound hits for additional characterization. Samples for 177 compounds from the subset of approximately 200 representative compounds were available for purchase. Samples of these 177 compounds were purchased for structure verification by NMR and further characterization. There was enough compound sample procured to complete follow-on screening for 166 of the 177 compounds.

[3] = target: GST-KIF15 1149-1388 (Homo sapiens (Human), UniProt Q9NS87); test: NMR (STD-NMR / WaterLOGSY) versus GST-KIF15; format: binding; details: for NMR Versus GST-KIF15: Hit / No; for WaterLOGSY binding to GST-KIF15: 1:150 GST-KIF15 1149-1388
Chain of GST-KIF15 1149-1388 (Q9NS87 1149-1388): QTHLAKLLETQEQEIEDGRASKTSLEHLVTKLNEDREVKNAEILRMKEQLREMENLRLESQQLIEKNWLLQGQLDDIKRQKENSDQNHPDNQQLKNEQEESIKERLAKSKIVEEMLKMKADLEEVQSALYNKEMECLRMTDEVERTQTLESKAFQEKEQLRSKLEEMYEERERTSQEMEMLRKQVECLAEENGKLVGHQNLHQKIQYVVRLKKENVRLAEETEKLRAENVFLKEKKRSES
Method: (§1) WaterLOGSY NMR Spectra of Compounds A1 and B2 are provided.
Various cocktails of compounds were prepared to test for interactions. 100 μL DMSO-d6 was added to 3 mg of material. 26 cocktails of 6 compounds were prepared and 3 cocktails of 7 compounds were prepared. Then, 3 μM protein is added to 300 μM of the cocktails in 10% D2O buffer. Concentration of compounds is 10 mM each.
(§2) The 166 compound hit samples were further characterized for KIF15 or TPX2 binding using biophysical saturation transfer difference nuclear magnetic resonance (STD-NMR) and WaterLOGSY assays. The 166 compound samples were screened by STD-NMR for evidence of binding to GST-KIF15 or His-TPX2. In our assessment, no hits bound to His-TPX2. The protocol counter-screened potential hits against a His-GST peptide^99 and for aggregation using protein-free controls. Ultimately, three compound hits representing two compound chemotypes were validated to bind KIF15 by WaterLOGSY (FIGS. 4A-4B).

[4] = target: His-TPX2 346-747 (Homo sapiens (Human), UniProt Q9ULW0); test: NMR (STD-NMR / WaterLOGSY) versus His-TPX2; format: binding; details: 1:150 His-TPX2 346-747
Chain of His-TPX2 346-747 (Q9ULW0 346-747): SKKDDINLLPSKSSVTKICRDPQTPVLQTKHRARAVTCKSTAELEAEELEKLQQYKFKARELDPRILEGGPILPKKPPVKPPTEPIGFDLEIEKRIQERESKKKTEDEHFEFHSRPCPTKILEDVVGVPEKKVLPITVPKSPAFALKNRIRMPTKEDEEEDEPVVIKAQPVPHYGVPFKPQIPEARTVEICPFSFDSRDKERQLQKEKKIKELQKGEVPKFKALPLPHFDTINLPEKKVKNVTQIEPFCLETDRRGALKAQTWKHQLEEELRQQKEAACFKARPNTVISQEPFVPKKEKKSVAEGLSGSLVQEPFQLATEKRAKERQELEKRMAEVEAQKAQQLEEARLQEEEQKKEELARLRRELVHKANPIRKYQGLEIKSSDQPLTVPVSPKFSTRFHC
Description: as §1, §2

[5] = target: KIF15-HiBiT (Homo sapiens (Human), UniProt Q9NS87); test: Cellular thermal shift assay (CETSA), HiBiT split luciferase; format: cell-based; details: 100 μM
Chain of KIF15-HiBiT (Q9NS87 whole entry, the tested form may be a part): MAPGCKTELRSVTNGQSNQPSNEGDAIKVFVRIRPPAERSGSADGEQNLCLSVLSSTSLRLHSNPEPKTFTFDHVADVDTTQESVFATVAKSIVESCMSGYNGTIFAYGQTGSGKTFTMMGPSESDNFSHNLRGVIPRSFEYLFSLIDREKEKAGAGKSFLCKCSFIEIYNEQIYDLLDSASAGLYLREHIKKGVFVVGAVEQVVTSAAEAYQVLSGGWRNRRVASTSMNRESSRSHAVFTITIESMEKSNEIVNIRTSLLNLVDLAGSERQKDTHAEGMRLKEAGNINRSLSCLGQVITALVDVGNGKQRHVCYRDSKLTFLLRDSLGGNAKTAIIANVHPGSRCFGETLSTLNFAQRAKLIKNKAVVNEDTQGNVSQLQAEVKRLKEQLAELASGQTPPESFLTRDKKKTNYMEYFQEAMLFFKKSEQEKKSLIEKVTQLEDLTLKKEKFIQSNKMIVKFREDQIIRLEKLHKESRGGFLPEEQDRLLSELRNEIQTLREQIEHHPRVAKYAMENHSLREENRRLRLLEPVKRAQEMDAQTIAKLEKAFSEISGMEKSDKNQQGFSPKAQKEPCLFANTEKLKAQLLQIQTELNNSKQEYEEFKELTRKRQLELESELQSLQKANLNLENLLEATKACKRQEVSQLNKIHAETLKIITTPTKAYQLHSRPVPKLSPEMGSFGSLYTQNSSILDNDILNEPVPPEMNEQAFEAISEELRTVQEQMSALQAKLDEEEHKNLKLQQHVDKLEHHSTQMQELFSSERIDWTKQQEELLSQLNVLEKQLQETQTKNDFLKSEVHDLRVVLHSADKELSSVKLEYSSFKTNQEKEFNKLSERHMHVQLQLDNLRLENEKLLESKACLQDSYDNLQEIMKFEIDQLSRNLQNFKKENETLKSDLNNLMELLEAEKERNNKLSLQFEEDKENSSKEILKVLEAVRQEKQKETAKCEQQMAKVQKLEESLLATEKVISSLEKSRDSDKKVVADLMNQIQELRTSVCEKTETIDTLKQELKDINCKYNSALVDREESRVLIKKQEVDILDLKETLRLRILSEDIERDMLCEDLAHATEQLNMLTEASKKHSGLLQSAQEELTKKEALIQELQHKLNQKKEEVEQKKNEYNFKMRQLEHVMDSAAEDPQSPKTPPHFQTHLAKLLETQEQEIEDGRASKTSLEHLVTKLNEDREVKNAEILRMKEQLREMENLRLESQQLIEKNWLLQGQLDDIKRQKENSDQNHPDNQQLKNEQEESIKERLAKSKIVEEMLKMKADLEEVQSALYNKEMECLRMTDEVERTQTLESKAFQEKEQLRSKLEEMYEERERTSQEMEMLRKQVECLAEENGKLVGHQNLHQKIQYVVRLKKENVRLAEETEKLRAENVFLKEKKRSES
Method: To verify that the three putative binders of KIF15 identified by NMR spectroscopy against KIF15 fragments, a cellular thermal shift assay was performed. All three compounds at 100 μM stabilized KIF15 when thermally challenged to a greater extent than the TPX2 mimetic peptide used as a positive control (Δ5.7° C. for compound A1, Δ5.3° C. for compound A2, and Δ9.6° C. for compound B1, Δ2.1° C. for TPX2 mimetic peptide).
The HiBiT Split Luciferase based protein detection method utilized for screening of candidate compounds for physical binding to KIF15. […] The increase in stability of the protein indicates ligand engagement by stabilizing the protein in a natured conformation.
These three compound hits, referred to as Compounds A1, A2 and B1 (FIG. 3A) were screened for target engagement in CETSA. In short, a split luciferase tag known as HiBiT (Promega, Madison, WI) was fused to the KIF15 protein in a transient expression vector. Soluble protein can be easily quantified by adding the LgBiT subunit of nano luciferase. A stabilizing shift in the melting temperature of the protein indicates the protein is being stabilized by the engaged small molecule indicating direct binding of the small molecule to its target.

[6] = system: EOC cell lines (A2780, OVCAR5, and SKOV3); test: Synergy with ispinesib in cell viability (Bliss score); format: cell-based; details: combination with ispinesib
Description: The protocol tested all 166 samples of compound hits for complete screening for synergism in KIF11-inhibited cells EOC cell lines (A2780, OVCAR5, and SKOV3) (FIGS. 5A-5C).
Bliss score analyzes the statistical independence of the two treatments. A positive score indicates synergism, a negative score indicates antagonism and a score of zero indicates a purely additive effect of the combination therapy.

Chain of KIF15/TPX2 protein-protein interaction (GST-KIF15 amino acids 1149-1388, His-TPX2 amino acids 346-747) (Q9NS87 1149-1388): as the sequence (Q9NS87 1149-1388) above

SMILES	IC50 [1] [µM]	IC50 [2] [µM]	NMR Versus GST-KIF15 [3]	WaterLOGSY binding to GST-KIF15 [3]	WaterLOGSY / STD-NMR binding to His-TPX2 [4]	shift in thermostability of KIF15 [5]	synergy with ispinesib in inhibition of growth [6]
CCCN1CCN(c2ncc3c(n2)CCN(Cc2ccc(CC)cc2)C3)CC1 [Compound 1, 6-(4-ethylbenzyl)-2-(4-propylpiperazin-1-yl)-5,6,7,8-tetrahydropyrido[4,3-d]pyrimidine]	393 ± 13	32.2 ± 4.6	No				
CCCN1CCN(c2ncc3c(n2)CCN(Cc2cccc(F)c2F)C3)CC1 [Compound 2, 6-(2,3-difluorobenzyl)-2-(4-propylpiperazin-1-yl)-5,6,7,8-tetrahydropyrido[4,3-d]pyrimidine]	428 ± 38	27.8 ± 4.7	No				
CCCN1CCN(c2ncc3c(n2)CCN(Cc2ccc(OCC)c(OCC)c2)C3)CC1 [Compound 3, 6-(3,4-diethoxybenzyl)-2-(4-propylpiperazin-1-yl)-5,6,7,8-tetrahydropyrido[4,3-d]pyrimidine]	510 ± 6	42.2 ± 3.3	No				
CCCN1CCN(c2ncc3c(n2)CCN(Cc2ccc(Br)s2)C3)CC1 [Compound 4, 6-((5-bromothiophen-2-yl)methyl)-2-(4-propylpiperazin-1-yl)-5,6,7,8-tetrahydropyrido[4,3-d]pyrimidine]	312 ± 79	23 ± 1.6	Hit				
CCCN1CCN(c2ncc3c(n2)CCN(Cc2cccc(Br)c2)C3)CC1 [Compound 5, 6-(3-bromobenzyl)-2-(4-propylpiperazin-1-yl)-5,6,7,8-tetrahydropyrido[4,3-d]pyrimidine]	287 ± 8	21	Hit				
CCCN1CCN(c2ncc3c(n2)CCN(Cc2ccc(Br)cc2)C3)CC1 [Compound 6, 6-(4-bromobenzyl)-2-(4-propylpiperazin-1-yl)-5,6,7,8-tetrahydropyrido[4,3-d]pyrimidine]	628 ± 35	13.6 ± 1.2	Hit				
CCOc1ccc(CN2CCc3nc(N4CCN(CC)CC4)ncc3C2)cc1OCC [Compound 7, 6-(3,4-diethoxybenzyl)-2-(4-ethylpiperazin-1-yl)-5,6,7,8-tetrahydropyrido[4,3-d]pyrimidine]	176 ± 9	2.8 ± 0.3	No				
CCN1CCN(c2ncc3c(n2)CCN(Cc2cc(OC)c(OC)cc2OC)C3)CC1 [Compound 8, 2-(4-ethylpiperazin-1-yl)-6-(2,4,5-trimethoxybenzyl)-5,6,7,8-tetrahydropyrido[4,3-d]pyrimidine]	120 ± 5.2	2.4 ± 0.1	No				
CCN1CCN(c2ncc3c(n2)CCN(Cc2ccc(OC)c(OC)c2OC)C3)CC1 [Compound 9, 2-(4-ethylpiperazin-1-yl)-6-(2,3,4-trimethoxybenzyl)-5,6,7,8-tetrahydropyrido[4,3-d]pyrimidine]	196 ± 0.1	1.7 ± 0.1	No				
CCN1CCN(c2ncc3c(n2)CCN(Cc2ccccc2Cl)C3)CC1 [Compound 10, 6-(2-chlorobenzyl)-2-(4-ethylpiperazin-1-yl)-5,6,7,8-tetrahydropyrido[4,3-d]pyrimidine]	86 ± 16	1.5 ± 0.01	Hit	indicates binding	not observed	significant shift in thermostability	Synergy
CCN1CCN(c2ncc3c(n2)CCN(Cc2cc(OC)c(OC)c(OC)c2)C3)CC1 [Compound 11, 2-(4-ethylpiperazin-1-yl)-6-(3,4,5-trimethoxybenzyl)-5,6,7,8-tetrahydropyrido[4,3-d]pyrimidine]	556 ± 38	2.5 ± 0.8	No				
CCOc1ccc(CN2CCc3nc(N4CCN(CC)CC4)ncc3C2)cc1OC [Compound 12, 6-(4-ethoxy-3-methoxybenzyl)-2-(4-ethylpiperazin-1-yl)-5,6,7,8-tetrahydropyrido[4,3-d]pyrimidine]	305 ± 13	3.5 ± 0.5	No				
CCCN1CCN(c2ncc3c(n2)CCN(Cc2ccc(OCC)c(OC)c2)C3)CC1 [Compound 13, 6-(4-ethoxy-3-methoxybenzyl)-2-(4-propylpiperazin-1-yl)-5,6,7,8-tetrahydropyrido[4,3-d]pyrimidine]	664 ± 103	44.8 ± 0.2	No				
C=CCn1c(C(=O)NCc2ccccn2)cc2sc(C)cc21 [Compound 14, 4-allyl-2-methyl-N-(pyridin-2-ylmethyl)-4H-thieno[3,2-b]pyrrole-5-carboxamide]	87 ± 2	5.6 ± 0.3		indicates binding	not observed	significant shift in thermostability	Synergy
CCCN1CCN(c2ncc3c(n2)CCN(Cc2cc(Br)cs2)C3)CC1 [Compound 15, 6-((4-bromothiophen-2-yl)methyl)-2-(4-propylpiperazin-1-yl)-5,6,7,8-tetrahydropyrido[4,3-d]pyrimidine]			Hit				
CCN1CCN(c2ncc3c(n2)CCN(Cc2ccc(F)cc2F)C3)CC1 [Compound 16, 6-(2,4-difluorobenzyl)-2-(4-ethylpiperazin-1-yl)-5,6,7,8-tetrahydropyrido[4,3-d]pyrimidine]			No				
CCN1CCN(c2ncc3c(n2)CCN(Cc2cccc(OC)c2OC)C3)CC1 [Compound 17, 6-(2,3-dimethoxybenzyl)-2-(4-ethylpiperazin-1-yl)-5,6,7,8-tetrahydropyrido[4,3-d]pyrimidine]			No				
CCN1CCN(c2ncc3c(n2)CCN(Cc2cc(Br)cs2)C3)CC1 [Compound 18, 6-((4-bromothiophen-2-yl)methyl)-2-(4-ethylpiperazin-1-yl)-5,6,7,8-tetrahydropyrido[4,3-d]pyrimidine]			Hit				
CCN1CCN(c2ncc3c(n2)CCN(Cc2ccc(OC(C)C)c(OC)c2)C3)CC1 [Compound 19, 2-(4-ethylpiperazin-1-yl)-6-(4-isopropoxy-3-methoxybenzyl)-5,6,7,8-tetrahydropyrido[4,3-d]pyrimidine]			No				
CCOc1cccc(CN2CCc3nc(N4CCN(CC)CC4)ncc3C2)c1 [Compound 20, 6-(3-ethoxybenzyl)-2-(4-ethylpiperazin-1-yl)-5,6,7,8-tetrahydropyrido[4,3-d]pyrimidine]			No				
